According to patent publication US5480879A, “Quinolonecarboxylic acids” (Bayer Aktiengesellschaft, priority 1992, dated 1996):
In brackets after ≈: the same amount, converted by molar mass.

Assays:
Assay in all cases: MIC in microtitre plates, brain-heart infusion broth
Format in all cases: cell-based
[1] = system: Enterococcus faecalis 27101; conditions: about 10^5 microorganisms/ml inoculum
Excerpt: (§1) The determination of the "minimum inhibitory concentrations" (MIC) was effected in mitrotitre plates using brain-heart infusion broth, with about 10^5 microorganisms/ml being employed as the inoculum.

[2] = system: Enterococcus faecalis 9790; conditions: about 10^5 microorganisms/ml inoculum
Excerpt: as §1

Escherichia coli Neumann = conditions: about 10^5 microorganisms/ml inoculum
Excerpt: as §1

Klebsiella sp. 63 = conditions: about 10^5 microorganisms/ml inoculum
Excerpt: as §1

[3] = system: Serratia marcescens 16040; conditions: about 10^5 microorganisms/ml inoculum
Excerpt: as §1

[4] = system: Staphylococcus aureus 133; conditions: about 10^5 microorganisms/ml inoculum
Excerpt: as §1

[5] = system: Staphylococcus aureus 1756; conditions: about 10^5 microorganisms/ml inoculum
Excerpt: as §1

[6] = system: Staphylococcus aureus ICB 25701; conditions: ICB25701, about 10^5 microorganisms/ml inoculum
Excerpt: as §1

[7] = system: Staphylococcus aureus ICB 25768; conditions: ICB25768, about 10^5 microorganisms/ml inoculum
Excerpt: as §1

| MIC [1] | MIC [2] | MIC (Escherichia coli Neumann) | MIC (Klebsiella sp. 63) | MIC [3] | MIC [4] | MIC [5] | MIC [6] | MIC [7] | SMILES |
| --- | --- | --- | --- | --- | --- | --- | --- | --- | --- |
| 0.25 µg/mL (≈ 0.34 µM) | 0.25 µg/mL (≈ 0.34 µM) | 0.03 µg/mL (≈ 0.0407 µM) | 0.125 µg/mL (≈ 0.17 µM) | 4 µg/mL (≈ 5.43 µM) | 0.03 µg/mL (≈ 0.0407 µM) | 0.004 µg/mL (≈ 0.00543 µM) | 0.25 µg/mL (≈ 0.34 µM) | 2 µg/mL (≈ 2.72 µM) | O=C(Cc1ccccc1)N[C@@H]1C(=O)N2C(C(=O)O)=C(CN3CCC[C@H]4CN(c5c(F)cc6c(=O)c(C(=O)O)cn(C7CC7)c6c5Cl)C[C@H]43)CS[C@H]12 [A, 7-[2-([6R,7R ]-2-Carboxy-8-oxo-7-phenylacetylamino-5-thia-1-aza-bicyclo[4.2.0]oct-2-en-3-ylmethyl)-[1S,6S]-2,8-diazabicyclo[4.3.0]non-8-yl]-8-chloro-1-cyclopropyl-6-fluoro-1,4-dihydro-4-oxo-3-quinolinecarboxylic acid] |
| 8 µg/mL (≈ 11.5 µM) | 8 µg/mL (≈ 11.5 µM) | 0.25 µg/mL (≈ 0.359 µM) | 1 µg/mL (≈ 1.44 µM) | 16 µg/mL (≈ 23 µM) | 0.125 µg/mL (≈ 0.18 µM) | 0.03 µg/mL (≈ 0.0431 µM) | 32 µg/mL (≈ 46 µM) | 128 µg/mL (≈ 184 µM) | O=C(Cc1ccccc1)N[C@@H]1C(=O)N2C(C(=O)O)=C(CN3CCN(c4c(F)cc5c(=O)c(C(=O)O)cn(C6CC6)c5c4Cl)CC3)CS[C@H]12 [B] |
